Data reported in patent publication US11427590B2, “Small molecule inhibitors of neutral sphingomyelinase 2 (nSMase2) for the treatment of neurodegenerative diseases” (The Johns Hopkins University, priority 2017, dated 2022).
Like-named read-outs stand apart in the source and are kept apart here.

Key:
human nSMase2 = human nSMase2 (Homo sapiens (Human), UniProt Q9NY59); assay: Human nSMase2 fluorescence-based activity assay; assay type: biochemical
Description: Figuera-Losada, et al. Lysate of cells expressing recombinant nSMase2 is used to catalyze the hydrolysis of sphingomyelin (SM) to ceramide and phosphorylcholine.

[1] = Phase I metabolic stability in human liver microsomes; assay type: in vitro ADME; settings: 37° C.
Description: (§1) Phase I metabolic stability in both mouse and human liver microsomes was performed as described previously. Rais et al. Briefly, compounds are spiked in liver microsomes (mouse, human) and incubated in an orbital shaker at 37° C. […] Compound disappearance is monitored over time using LC/MS/MS.

[2] = Phase I metabolic stability in mouse liver microsomes; assay type: in vitro ADME; settings: 37° C.
Description: as §1

rat astrocytes = assay: Inhibition of exosome release from primary astrocytes in vitro; assay type: cell-based; settings: 0.3-10 μM, 2 h after treatment, vs DMSO (0.02%)
Description: The effect of nSMase2 inhibitors on the manufacturing and release of ceramide rich exosomes from primary astrocytes was investigated as previously described. Dickens, et al. Briefly, rat astrocytes are seeded onto 6-well plates at a density of 20,000 cells/well. Twenty-four hours after seeding, astrocytes are washed with PBS and the medium changed to media without FBS. Absence of FBS mimics a trophic factor withdrawal stimulus causing the release of exosomes via a nSMase2-dependent pathway. Astrocytes are then treated with nSMase2 inhibitors at concentrations in the range 0.03-30 μM. DMSO (0.02%) is used as control. Two hours after treatment, media is collected and centrifuged at 2700 g for 15 min (4° C.). Supernatant is further centrifuged at 10,000 g for 15 min (4° C.) to remove large particles such as apoptotic bodies. Astrocyte-derived extracellular vesicles (EVs) are isolated via ultracentrifugation at 100,000 g for 3 h at 4° C. Fractions containing EV are washed twice with 5 ml PBS and the final pellet resuspended in PBS. This isolation procedure results in the isolation of EVs with a narrow size range and protein markers consistent with exosomes. Dickens, et al. The number of EVs is quantified using ZetaView Nanoparticle Tracker (Particle Metrix GmBH, Meerbusch, Germany) and the corresponding ZetaVeiw software (8.03.04.01). Nanosphere size standard 100 nm (Thermo Scientific) is used to calibrate the instrument prior to sample readings. For each sample 1 mL of the supernatant is injected into the sample-carrier cell and the particle count measured at 5 positions, with 2 cycles of reading per position. Cells are washed with PBS after every sample. Mean concentration of EVs/mL (±SEM) is calculated from 6 replicates. This screening assay is reliable with a Z′=0.75.
Referring now to FIG. 4A and FIG. 4B, the ability of compound 38 and several of its analogs to inhibit exosome release in vitro was evaluated as previously described. […] Two hours after treatment, exosomes were isolated from the media and quantified using ZetaView Nanoparticle Tracker. The mean concentration of exosomes (EVs/mL±SEM) was calculated from 6 replicate experiments (see FIG. 4). […] Baseline exosome release can be variable between experiments; as a result, inhibition is always compared relative to vehicle treatment within the same experiment. Structures of compounds with their corresponding IC50s are provided in the second row of FIG. 4.

[3] = inhibition of nSMase2, read-out: IC50
[4] = inhibition of nSMase2, IC50 category A-D, read-out: Activity*

Chain of human nSMase2 (Q9NY59 whole entry): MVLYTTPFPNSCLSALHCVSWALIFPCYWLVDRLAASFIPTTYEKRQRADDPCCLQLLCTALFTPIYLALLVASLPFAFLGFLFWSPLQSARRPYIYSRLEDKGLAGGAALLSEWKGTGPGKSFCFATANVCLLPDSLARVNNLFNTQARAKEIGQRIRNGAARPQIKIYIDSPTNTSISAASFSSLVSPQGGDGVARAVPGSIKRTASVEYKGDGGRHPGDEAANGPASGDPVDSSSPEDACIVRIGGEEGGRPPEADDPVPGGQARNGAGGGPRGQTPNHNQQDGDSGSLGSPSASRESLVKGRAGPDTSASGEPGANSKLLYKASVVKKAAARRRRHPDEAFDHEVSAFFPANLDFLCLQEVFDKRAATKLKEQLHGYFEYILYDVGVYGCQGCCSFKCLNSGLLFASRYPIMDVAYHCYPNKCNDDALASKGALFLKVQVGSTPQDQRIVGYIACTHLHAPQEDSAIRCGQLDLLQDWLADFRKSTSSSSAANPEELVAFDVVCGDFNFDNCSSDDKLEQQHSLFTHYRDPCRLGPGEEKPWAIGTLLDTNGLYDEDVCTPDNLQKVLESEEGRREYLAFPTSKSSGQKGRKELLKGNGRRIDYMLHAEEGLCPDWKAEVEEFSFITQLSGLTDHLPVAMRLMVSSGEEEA

Row | SMILES | IC50 (human nSMase2; [3]) [µM] | IC50 (human nSMase2; [4]) [µM] | also measured
1 | COc1ccc(-c2c(C)nc3c(N4CC[C@@H](NC(C)=O)C4)cc(Cl)nn23)cc1 [11-PROV] | > 100 |  | 
2 | CC(=O)N[C@@H]1CCN(c2cc(C)nn3c(C)c(C)nc23)C1 [48-PROV] | > 1 |  | 
3 | CC(=O)N[C@@H]1CCN(c2cc(C)nn3c(-c4ccc(OC(F)(F)F)cc4)c(C)nc23)C1 [compound 17, (R)—N-(1-(2,6-dimethyl-3-(4-(trifluoromethoxy)phenyl)imidazo[1,2-b]pyridazin-8-yl)pyrrolidin-3-yl)acetamide] |  |  | Human Liver Microsome (+) NADPH Remaining at 60 min [1]: 114 ± 4%; Mouse Liver Microsome (+) NADPH % Remaining at 60 min [2]: 72 ± 6%
4 | CC(=O)N[C@@H]1CCN(c2cc(C)nn3c(-c4cccs4)c(C)nc23)C1 [compound 13, (R)—N-(1-(2,6-dimethyl-3-(thiophen-2-yl)imidazo[1,2-b]pyridazin-8-yl)pyrrolidin-3-yl)acetamide] |  |  | Human Liver Microsome (+) NADPH Remaining at 60 min [1]: 50 ± 4%; Mouse Liver Microsome (+) NADPH % Remaining at 60 min [2]: 28 ± 2%
5 | COc1ccc(-c2c(C)nc3c(N4CC[C@@H](NC(=O)C(F)(F)c5ccccc5)C4)cc(C)nn23)cc1OC [compound 37, (R)—N-(1-(3-(3,4-dimethoxyphenyl)-2,6-dimethylimidazo[1,2-b]pyridazin-8-yl)pyrrolidin-3-yl)-2,2-difluoro-2-phenylacetamide] |  |  | Human Liver Microsome (+) NADPH Remaining at 60 min [1]: 20 ± 2%; Mouse Liver Microsome (+) NADPH % Remaining at 60 min [2]: 6 ± 1%
6 | CC(=O)N[C@@H]1CCN(c2cc(Cl)nn3cc(C)nc23)C1 [9-PROV] | > 100 |  | 
7 | COc1ccc(-c2scc3c(N4CC[C@@H](NC(C)=O)C4)nc(C)nc23)cc1OC [29b-PROV] |  | > 100 | 
8 | COc1cccc(-c2c(C)nc3c(N4CC[C@@H](NC(C)=O)C4)cc(C)nn23)c1 [20-PROV] | > 1 |  | 
9 | COc1ccc(-c2c(C)sc3c(N4CC[C@@H](NC(C)=O)C4)nc(C)nc23)cc1OC [29a-PROV] |  | > 100 | 
10 | COc1ccc(-c2c3nc(C)nc(N4CC[C@@H](NC(C)=O)C4)c3nn2C)cc1OC [12-PROV] |  | > 100 | 
11 | CC(=O)N[C@@H]1CCN(c2cc(C)nn3c(I)c(C)nc23)C1 [23-PROV] | > 10 |  | 
12 | COc1ccc(-n2cnc3c(N4CC[C@@H](NC(C)=O)C4)nc(C)nc32)cc1OC [2-PROV] |  | > 100 | 
13 | COc1ccc(-c2scc3c(N4CC[C@@H](NC(C)=O)C4)nc(Cl)nc23)cc1OC [26-PROV] |  | > 100 | 
14 | CC(=O)Nc1cccc(-c2c(C)nc3c(N4CC[C@@H](NC(C)=O)C4)cc(Cl)nn23)c1 [19-PROV] | > 100 |  | 
15 | COc1ccc(-c2c(C)sc3c(N4CC[C@@H](NC(C)=O)C4)nc(Cl)nc23)cc1OC [25-PROV] |  | > 100 | 
16 | CC(=O)Nc1cccc(-c2c(C)nc3c(N4CC[C@@H](NC(C)=O)C4)cc(C)nn23)c1 [22-PROV] | > 1 |  | 
17 | COc1ccc(-n2c(C)nc3c(N4CC[C@@H](NC(C)=O)C4)ncnc32)cc1OC [5-PROV] |  | > 100 | 
18 | COc1ccc(-c2csc3c(N4CC[C@@H](NC(C)=O)C4)nc(Cl)nc23)cc1OC [24-PROV] |  | > 100 | 
19 | COc1ccc(-c2c(C)sc3c(N4CC[C@@H](NC(C)=O)C4)ncnc23)cc1OC [28-PROV] |  | > 100 | 
20 | CC(=O)N[C@@H]1CCN(c2cc(C)nn3c(-c4ccc5c(c4)OCO5)c(C)nc23)C1 [40-PROV] | ≤ 1 |  | 
21 | COc1ccc(-c2csc3c(N4CC[C@@H](NC(C)=O)C4)nc(C)nc23)cc1OC [30-PROV] |  | > 100 | 

Row | SMILES | IC50 (human nSMase2; [3]) [µM] | IC50 (human nSMase2; [4]) [µM] | also measured
22 | CC(=O)N[C@@H]1CCN(c2cc(C)nn3c(-c4ccc(O)cc4)c(C)nc23)C1 [47-PROV] | ≤ 1 |  | 
23 | CC(=O)N[C@@H]1CCN(c2ccnn3cc(C)nc23)C1 [15-PROV] | > 10 |  | 
24 | COc1ccc(-c2c(C)nc3c(N4CC[C@@H](NS(=O)(=O)c5ccc(C(C)=O)cc5)C4)cc(C)nn23)cc1OC [compound 23, (R)-4-acetyl-N-(1-(3-(3,4-dimethoxyphenyl)-2,6-dimethylimidazo[1,2-b]pyridazin-8-yl)pyrrolidin-3-yl)benzenesulfonamide] |  |  | Human Liver Microsome (+) NADPH Remaining at 60 min [1]: 12 ± 3%; Mouse Liver Microsome (+) NADPH % Remaining at 60 min [2]: 5 ± 1%
25 | COc1ccc(-c2nn(C)c3c(N4CC[C@@H](NC(C)=O)C4)nc(C)nc23)cc1OC [13-PROV] |  | > 100 | 
26 | COc1ccc(-c2c(C)nn3c(N4CC[C@@H](NC(C)=O)C4)nc(C)nc23)cc1OC [36-PROV] |  | > 100 | 
27 | COc1ccc(-c2c(-c3ccc(C)cc3)nc3c(N4CC[C@@H](NC(C)=O)C4)cc(C)nn23)cc1OC [compound 62, (R)—N-(1-(3-(3,4-dimethoxyphenyl)-6-methyl-2-(p-tolyl)imidazo[1,2-b]pyridazin-8-yl)pyrrolidin-3-yl)acetamide] |  |  | Human Liver Microsome (+) NADPH Remaining at 60 min [1]: 28 ± 5%; exosome release from astrocytes (rat astrocytes): decreased the number of exosomes released from astrocytes in a dose dependent manner; Mouse Liver Microsome (+) NADPH % Remaining at 60 min [2]: 53 ± 6%
28 | COc1ccc(-n2ncc3c(N4CC[C@@H](NC(C)=O)C4)nc(C)nc32)cc1OC [10-PROV] |  | > 100 | 
29 | CC(=O)N[C@@H]1CCN(c2cc(C)nn3c(-c4cccc(S(C)(=O)=O)c4)c(C)nc23)C1 [42-PROV] | > 1 |  | 
30 | COc1ccc(-c2c(C)nc3c(N4CC[C@@H](NS(=O)(=O)c5ccc(C)cc5)C4)cc(C)nn23)cc1OC [compound 22, (R)—N-(1-(3-(3,4-dimethoxyphenyl)-2,6-dimethylimidazo[1,2-b]pyridazin-8-yl)pyrrolidin-3-yl)-4-methylbenzenesulfonamide] |  |  | Human Liver Microsome (+) NADPH Remaining at 60 min [1]: 29 ± 1%; Mouse Liver Microsome (+) NADPH % Remaining at 60 min [2]: 2 ± 1%
31 | COc1ccc(-n2cnc3c(N4CC[C@@H](NC(C)=O)C4)ncnc32)cc1OC [6-PROV] |  | > 100 | 
32 | COc1ccc(-c2c(C)nc3c(N4CCCC4)cc(C)nn23)cc1OC [compound 44, 3-(3,4-dimethoxyphenyl)-2,6-dimethyl-8-(pyrrolidin-1-yl)imidazo[1,2-b]pyridazine] |  |  | Human Liver Microsome (+) NADPH Remaining at 60 min [1]: 58 ± 4%; exosome release from astrocytes (rat astrocytes): decreased the number of exosomes released from astrocytes in a dose dependent manner; Mouse Liver Microsome (+) NADPH % Remaining at 60 min [2]: 1 ± 0%
33 | COc1ccc(-c2c(C)oc3c(N4CC[C@@H](NC(C)=O)C4)cc(C)nc23)cc1OC [8-PROV] |  | > 100 | 
34 | COc1ccc(-c2csc3c(N4CC[C@@H](NC(C)=O)C4)ncnc23)cc1OC [27-PROV] |  | > 100 | 
35 | COc1ccc(-c2c(C)nn3c(N4CC[C@@H](NC(C)=O)C4)cc(C)nc23)cc1OC [4-PROV] |  | > 100 | 
36 | COc1ccc(-c2c(C)nc3c(N4CC[C@@H](NS(=O)(=O)c5ccc(Cl)cc5)C4)cc(C)nn23)cc1OC [compound 29, (R)-4-chloro-N-(1-(3-(3,4-dimethoxyphenyl)-2,6-dimethylimidazo[1,2-b]pyridazin-8-yl)pyrrolidin-3-yl)benzenesulfonamide] |  |  | Human Liver Microsome (+) NADPH Remaining at 60 min [1]: 32 ± 6%; Mouse Liver Microsome (+) NADPH % Remaining at 60 min [2]: 7 ± 2%
37 | COc1ccc(-c2c(C)nc3c(N4CC[C@@H](NS(=O)(=O)c5ccccc5)C4)cc(C)nn23)cc1OC [compound 28, (R)—N-(1-(3-(3,4-dimethoxyphenyl)-2,6-dimethylimidazo[1,2-b]pyridazin-8-yl)pyrrolidin-3-yl)benzenesulfonamide] |  |  | Human Liver Microsome (+) NADPH Remaining at 60 min [1]: 43 ± 6%; Mouse Liver Microsome (+) NADPH % Remaining at 60 min [2]: 20 ± 1%
38 | COc1ccc(-c2c(C)nc3c(N4CC[C@@H](NC(=O)C(F)(F)F)C4)cc(C)nn23)cc1OC [compound 35, (R)—N-(1-(3-(3,4-dimethoxyphenyl)-2,6-dimethylimidazo[1,2-b]pyridazin-8-yl)pyrrolidin-3-yl)-2,2,2-trifluoroacetamide] |  |  | Human Liver Microsome (+) NADPH Remaining at 60 min [1]: 113 ± 8%; Mouse Liver Microsome (+) NADPH % Remaining at 60 min [2]: 117 ± 8%
39 | COc1cccc(-c2c(C)nc3c(N4CC[C@@H](NC(C)=O)C4)cc(Cl)nn23)c1 [14-PROV] | > 100 |  | 
40 | CC(=O)N[C@@H]1CCN(c2cc(Cl)nn3c(-c4ccc(F)cc4)c(C)nc23)C1 [18-PROV] | > 100 |  | 
41 | COc1cc(N2CC[C@@H](NC(C)=O)C2)c2nc(C)c(-c3ccc(OC)c(OC)c3)n2n1 [38-PROV] | > 1 |  | 
42 | COc1ccc(-n2c(C)nc3c(N4CC[C@@H](NC(C)=O)C4)nc(C)nc32)cc1OC [3-PROV] |  | > 100 | 
